From publication PMC12876990, “Targeting secreted PLA2 interactions with EGFR and vimentin to arrest prostate tumour growth” (Cell Death & Disease, 2025)
pIC50: −log10 of the molar value. Square brackets hold non-standard residues; d marks the D form. Peptide text beside a SMILES is read from it. 2Nal = N[C@@H](Cc1ccc2ccccc2c1)C(=O)O

Experiments:
[1] = 28-day oral toxicity study: body weights; format: in vivo, male Sprague Dawley rats
Experimental: 3.6. Procedure for test item administration
intragastric cannula attached to a 3 mL syringe.
3.7. Observation of animals
groups: Day 29; recovery groups: Day 43).
(Appendix C Study Data Spreadsheets).
report (Appendix C Study Data Spreadsheets). […]

[2] = target: T1, hGIIA/vimentin interaction (Homo sapiens, UniProt P08670); assay: Enzyme immunoassay of hGIIA binding to vimentin coil 2; settings: in vitro; read-out: IC50, inhibition of the interaction between hGIIA and vimentin
T1 construct: Purified vimentin fragments (full length or coil 2) were seeded to a 96-well microplate at 15 μg/mL; hGIIA purified in house from conditioned medium of CHO cell line 2B1
Experimental: Prior to assay, hGIIA antibody 4A1 was conjugated to alkaline phosphatase (4A1-AP), produced using the lightning-link conjugation kit (ab102850, Abcam) as per the manufacturer’s instructions.
Purified vimentin fragments (full length or coil 2) were seeded to a 96-well microplate at 15 μg/mL with a 100 μL/well volume. After an overnight incubation at 4 °C, the plate was emptied. Each well was then blocked overnight at 4 °C with 200 μL of 1% BSA in PBS. The plate was emptied and washed with PBST (PBS + 0.05% Tween20). hGIIA solution of 100 ng/mL in PBS with 0.1% BSA was prepared with and without inhibitors c2, Withaferin A and LY311727 in DMSO with concentrations 0.1-100 µM. hGIIA working solution with 0.4% DMSO served as a positive control and PBS with 0.1% BSA served as a negative control. A 100 μL volume of each prepared hGIIA-inhibitor mixture was added to wells in triplicate and incubated at 37 °C for two hours. The plate was washed twice with PBST, then incubated with the 4A1-AP conjugate at 1 μg/mL 0.1% BSA in PBS and incubated for one hour at 37 °C. Plates were then emptied and washed three times with PBST, followed by washing twice with carbonate buffer (8 mM Na2CO3, 36 mM NaHCO3, 2 mM MgCl2, pH 9.8), before incubation with AP substrate p-nitro-phenyl phosphate (PNPP) powder at 1 mg/mL concentration in carbonate buffer. The plate was incubated at 37 °C for 60 mins then absorbance was read at 405 nm by a Spectramax M2 plate reader. All washes were a 200 µL/well volume.

[3] = 28-day oral toxicity study: feed consumption
Experimental: The calculated volumetric do se wa s administered to each rat orally by gav age, using a plastic
Two dose level s of 1 and 20 mg/kg of the te st it em susp ension were administered to each rat
every 3 days (total 10 do ses) for 28 days. This c orresponded to volumetric dose of 10.09 and
10.23 mL/kg. The volumetric dose administered to each animal was calculated on Days 1, 8, 15
Feed consumption was monitored weekly over the 28-day experimental period in all groups
and was continued for a further 2 weeks in the recovery groups (42-day experimental
period). Feed intake was monitored by providing a known mass of feed to each cage and
subtracting the mas s remaining at the end of th e weekly period. Animals were fa sted
overnight on either Day 28 (main groups) or Day 42 (recovery groups).

[4] = 28-day oral toxicity study: biochemistry analysis; format: in vivo, male Sprague Dawley rats
Experimental: Blood analyse s (haematology and biochemistry) w ere performed on all animals on Day 29 (main groups) or Day 43 (recovery groups). Approximately 4 mL of blood was taken from ea ch animal by cardiac puncture using a 10 mL syringe and 21-gauge needle. The procedure involved anaesthetising by intraperitoneal injection of sodi um pentobarbitone using a 2 mL sterile plastic syringe attached to a 26-gauge needle (Terumo).
For each blood sampling, the blood was divided into two aliquots: (i) one was placed into a tube containing EDTA (for whole blood and EDTA plasma), (ii) one aliquot into a Li-heparin tube. […]
Results and methods of analysis were attached in an appendix to the report (Appendix D Haematology and Biochemistry). Blood smear s for cell morphology were prepared. […]
3.9.2. Biochemistry analysis
The following parameters were analysed: glucose (Glu), urea, creatinine (Creat), total protein (TP), albumin (ALB), albumin/globulin ratio (A:G), total bilirubin (TBil), alkaline phosphatase (ALP), aspartate aminotransferase (AST), alanine aminotransferase (ALT), creatine kinase (CK), chole sterol (Chol), calcium (Ca), phosphate (Phos), Ca:P ratio, sodium (Na), potassium (K), Na:K ratio, chloride (Cl), globulin (Glob), gamma glutamyl transferase (GGT) and triglycerides (Trig).
Haematology and Biochemistry). […]
(Appendix C Study Data Spreadsheets). […]

[5] = 28-day and 42-day experimental period
[6] = Day 43, Gr 5 recovery, 20 mg/kg

T1 sequence (P08670 269-407 limits assumed): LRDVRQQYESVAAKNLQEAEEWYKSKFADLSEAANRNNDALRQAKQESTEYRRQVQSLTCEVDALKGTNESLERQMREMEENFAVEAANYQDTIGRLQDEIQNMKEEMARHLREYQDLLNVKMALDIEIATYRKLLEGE

In the case of `CC(C)C[C@@H]1NC(=O)[C@H](Cc2ccc3ccccc3c2)NC(=O)[C@H](CCCNC(=N)N)NC(=O)[C@H](Cc2ccc3ccccc3c2)NC(=O)[C@H](CO)NC1=O` [c2, cyclo-((2-Nal)-Leu-Ser-(2-Nal)-Arg)] (cyclo([2Nal]LS[2Nal]R)), the “percentage body weight gain” value ([1]; 4-week observation period, Gr 2, 1 mg/kg) was 55.4 ± 8.84%, the “body weight gains vs vehicle control” value [1, 5] was “comparable” and the Mean body weight ([1]; Day 1, Gr 2, 1 mg/kg) was 261 ± 14.0 g. The Mean body weight ([1]; Day 1, Grs 3 & 5, 20 mg/kg) was 257 ± 11.3 g, the Mean body weight ([1]; Day 8, Gr 2, 1 mg/kg) was 312 ± 15.3 g and the Mean body weight ([1]; Day 8, Grs 3 & 5, 20 mg/kg) was 312 ± 14.1 g. The Mean body weight ([1]; Day 15, Gr 2, 1 mg/kg) was 356 ± 22.3 g, the Mean body weight ([1]; Day 15, Grs 3 & 5, 20 mg/kg) was 354 ± 20.8 g and the Mean body weight ([1]; Day 22, Gr 2, 1 mg/kg) was 387 ± 24.9 g. It also gave a Mean body weight ([1]; Day 22, Grs 3 & 5, 20 mg/kg) of 392 ± 24.5 g, a Mean body weight ([1]; Day 28, Gr 2, 1 mg/kg) of 406 ± 31.0 g and a Mean body weight ([1]; Day 28, Grs 3 & 5, 20 mg/kg) of 414 ± 27.3 g. For the same molecule, the Mean body weight ([1]; Day 29 after overnight fasting, Gr 2, 1 mg/kg) was 395 ± 28.0 g, the Mean body weight ([1]; Day 29 after overnight fasting, Gr 3, 20 mg/kg) was 395 ± 31.5 g and the Mean body weight ([1]; Day 36, Gr 5 recovery, 20 mg/kg) was 458 ± 12.0 g. The Mean body weight ([1]; Day 42, Gr 5 recovery, 20 mg/kg) was 480 ± 11.6 g, the Mean body weight ([1]; Day 43 after overnight fasting, Gr 5 recovery, 20 mg/kg) was 460 ± 12.3 g and the body weight gain ([1]; Week 1, Gr 2, 1 mg/kg) was 19.6 ± 2.49%. The pIC50 [2] was 4.25, the “feed intake vs control” value [3, 5] was “similar” and the Mean feed intake/cage/week ([3]; Week 1, Gr 2, 1 mg/kg, 5 animals/cage) was 801 ± 26.9 g. For the same molecule, the Mean feed intake/cage/week ([3]; Week 1, Grs 3 & 5, 20 mg/kg) was 819 ± 55.4 g, the Mean feed intake/cage/week ([3]; Week 2, Gr 2, 1 mg/kg) was 839 ± 12.0 g and the Mean feed intake/cage/week ([3]; Week 2, Grs 3 & 5, 20 mg/kg) was 877 ± 45.1 g. It also gave a Mean feed intake/cage/week ([3]; Week 3, Gr 2, 1 mg/kg) of 845 ± 0 g, a Mean feed intake/cage/week ([3]; Week 3, Grs 3 & 5, 20 mg/kg) of 916 ± 35.2 g and a Mean feed intake/cage/week ([3]; Week 4, Grs 3 & 5, 20 mg/kg) of 815 ± 42.0 g. For the same molecule, the Mean feed intake/cage/week ([3]; Week 5, Gr 5 recovery, 20 mg/kg) was 1013 g, the Mean feed intake/cage/week ([3]; Week 6, Gr 5 recovery, 20 mg/kg) was 802 g and the Mean feed intake/cage/week ([3]; week 4, Gr 2, 1 mg/kg) was 775 ± 27.6 g. For the same molecule, the “ALT (serum alanine transaminase)” value ([4]; 1 mg/kg) was 61.1 ± 15.53 IU/L, the “CK (serum creatine kinase)” value ([4]; 1 mg/kg) was 164 ± 47.4 IU/L and the “K (serum potassium)” value ([4]; 1 mg/kg) was 3.59 ± 0.137 mM. For the same molecule, the Na/K ratio ([4]; 1 mg/kg) was 40.5 ± 1.59, the “ALT (serum alanine transaminase)” value ([4]; 20 mg/kg) was 64.7 ± 19.01 IU/L and the “CK (serum creatine kinase)” value ([4]; 20 mg/kg) was 140 ± 34.4 IU/L. The “K (serum potassium)” value ([4]; 20 mg/kg) was 3.66 ± 0.295 mM, the Na/K ratio ([4]; 20 mg/kg) was 39.9 ± 3.16 and the ALP ([4]; Day 29, Gr 2, 1 mg/kg) was 219 ± 37.4 IU/L. The AST ([4]; Day 29, Gr 2, 1 mg/kg) was 173 ± 69.4 IU/L, the CK ([4]; Day 29, Gr 2, 1 mg/kg) was 164 ± 47.4 IU/L and the Na ([4]; Day 29, Gr 2, 1 mg/kg) was 145 ± 0.7 mmol/L. The ALP ([4]; Day 29, Gr 3, 20 mg/kg) was 234 ± 35.7 IU/L, the ALT ([4]; Day 29, Gr 3, 20 mg/kg) was 64.7 ± 19.01 IU/L and the AST ([4]; Day 29, Gr 3, 20 mg/kg) was 163 ± 76.8 IU/L. It also gave a CK ([4]; Day 29, Gr 3, 20 mg/kg) of 140 ± 34.4 IU/L, a Na ([4]; Day 29, Gr 3, 20 mg/kg) of 145 ± 0.8 mmol/L and an ALP [4, 6] of 144 ± 24.2 IU/L. For the same molecule, the ALT [4, 6] was 62 ± 20.2 IU/L, the AST [4, 6] was 236 ± 106.7 IU/L and the CK [4, 6] was 117 ± 36.0 IU/L. It also gave a Na [4, 6] of 144 ± 0.4 mmol/L, a TP [4, 6] of 62 ± 1.7 g/L and a Cl ([4]; rat, in vivo, 1 mg/kg) of 101 ± 1.2 mmol/L.
